Assay results reported in publication PMC8809408 (Frontiers in Pharmacology, 2022).
Where a name gives a salt, the structure may show the parent alone. Read-outs that look alike come from different tables or passages of the source.

How the values were obtained:
[1] = test system: pseudotyped lentiviruses harboring S-protein of SARS-CoV-2; test: microbe, parasite or virus in culture; type: cell-based
[2] = test system: pseudotyped viruses, triple mutant (N501Y/K417N/E484K) S protein; type: cell-based, SARS-CoV-2
[3] = test system: pseudotyped viruses carrying E484K mutation in S protein; type: cell-based, SARS-CoV-2
[4] = test system: pseudotyped viruses carrying K417N mutation in S protein; type: cell-based, SARS-CoV-2
[5] = test system: pseudotyped viruses carrying N501Y mutation in S protein; type: cell-based, SARS-CoV-2
[6] = Severe acute respiratory syndrome coronavirus 2, 24 h

**Q.** For `N[C@@]1(c2ccccc2Cl)CCC[C@@H](O)C1=O` [2R,6R-HNK, 2R, 6R-Hydroxynorketamine], which “luciferase reporter activity (viral infection)” value [1] is on record?
**A.** Its value is “neither ketamine nor the metabolites were effective”.

**Q.** How did the “luciferase reporter activity (viral infection)” value [1] turn out when `N[C@]1(c2ccccc2Cl)CCC[C@H](O)C1=O` [2S,6S-HNK, 2S, 6S-Hydroxynorketamine] was run?
**A.** The value was “neither ketamine nor the metabolites were effective”.

**Q.** For `CN(C)C(=O)COC(=O)Cc1ccc(OC(=O)c2ccc(NC(=N)N)cc2)cc1` [Camostat mesylate], which “luciferase reporter activity (viral infection)” value [1] is on record?
**A.** The value was “significantly reduced”.

**Q.** Which “luciferase reporter activity (viral infection)” value [1] does the source give for `NC(=O)N1c2ccccc2C=Cc2ccccc21` [Carbamazepine] here?
**A.** Its value is “failed to change the viral infection”.

**Q.** Which IC50 [1] does the source give for `CN(C)CCCN1c2ccccc2Sc2ccc(Cl)cc21` [Chlorpromazine] here?
**A.** Its IC50 is 0.972 µM.

**Q.** And the “luciferase reporter activity (viral infection)” value [1]?
**A.** Its value is “Decline of luciferase reporter activity”.

**Q.** What about the “effectiveness against SARS-CoV-2 spike pseudotyped viruses compared with VSV-G pseudotyped viruses (luciferase activity)” value ([1]; 24 h) of the same compound?
**A.** Its value is “more effective”.

**Q.** What about the IC50 [1, 6] of the same compound?
**A.** The IC50 was 0.973 µM.

**Q.** `CN(C)CCCC1(c2ccc(F)cc2)OCc2cc(C#N)ccc21` (centres unmarked) [Citalopram] was tested. Which “luciferase reporter activity (viral infection)” value [1] did it give?
**A.** The value was “significantly reduced luciferase reporter activity”.

**Q.** What about the “selectivity index (SI)” value [1] of the same compound?
**A.** Its value is 9.97.

**Q.** What about the “effectiveness against SARS-CoV-2 spike pseudotyped viruses compared with VSV-G pseudotyped viruses (luciferase activity)” value ([1]; 24 h) of the same compound?
**A.** Its value is “more effective”.

**Q.** What about the IC50 [1, 6] of the same compound?
**A.** The IC50 was 27.5 µM.

**Q.** Which “effectiveness against SARS-CoV-2 spike pseudotyped viruses compared with VSV-G pseudotyped viruses (luciferase activity)” value [1] does the source give for `CN(C)CCCN1c2ccccc2CCc2ccc(Cl)cc21` [Clomipramine] here?
**A.** The value was “more effective”.

**Q.** What about the “luciferase reporter activity (viral infection)” value [1] of the same compound?
**A.** The value was “significantly reduced luciferase reporter activity”.

**Q.** `CNCCCN1c2ccccc2CCc2ccccc21` [Desipramine] was tested. Which “luciferase reporter activity (viral infection)” value [1] did it give?
**A.** Its value is “significantly reduced luciferase reporter activity”.

**Q.** And the “effectiveness against SARS-CoV-2 spike pseudotyped viruses compared with VSV-G pseudotyped viruses (luciferase activity)” value ([1]; 24 h)?
**A.** Its value is “more effective”.

**Q.** And the IC50 [1, 6]?
**A.** Its IC50 is 8.1 µM.

**Q.** For `CNCCC(Oc1ccc(C(F)(F)F)cc1)c1ccccc1` (centres unmarked) [Fluoxetine], which “luciferase reporter activity, triple mutant (N501Y/K417N/E484K) pseudovirus” value [2] is on record?
**A.** Its value is “significantly reduced the luciferase reporter activity”.

**Q.** What about the “luciferase reporter activity, E484K pseudovirus” value [3] of the same compound?
**A.** The value was “significantly reduced the luciferase reporter activity”.

**Q.** And the “effectiveness against SARS-CoV-2 spike pseudotyped viruses compared with VSV-G pseudotyped viruses (luciferase activity)” value [1]?
**A.** The value was “more effective”.

**Q.** What about the “luciferase reporter activity (viral infection)” value [1] of the same compound?
**A.** The value was “significantly reduced luciferase reporter activity”.

**Q.** And the “luciferase reporter activity, WT spike pseudovirus” value [1]?
**A.** The value was “significantly reduced the luciferase reporter activity”.

**Q.** And the “luciferase reporter activity, K417N pseudovirus” value [4]?
**A.** The value was “significantly reduced the luciferase reporter activity”.

**Q.** What about the “luciferase reporter activity, N501Y pseudovirus” value [5] of the same compound?
**A.** The value was “significantly reduced the luciferase reporter activity”.

**Q.** Which results are given for `OCCN1CCN(CCC=C2c3ccccc3Sc3ccc(C(F)(F)F)cc32)CC1` [Flupenthixol]?
**A.** luciferase reporter activity (viral infection) [1]: Decline of luciferase reporter activity; selectivity index (SI) [1]: 18.11; effectiveness against SARS-CoV-2 spike pseudotyped viruses compared with VSV-G pseudotyped viruses (luciferase activity) ([1]; 24 h): more effective; IC50 [1, 6]: 1.07 µM

**Q.** For `CN(C)CCCN1c2ccccc2CCc2ccccc21` [Imipramine], which IC50 [1] is on record?
**A.** The IC50 was 3 µM.

**Q.** And the “luciferase reporter activity (viral infection)” value [1]?
**A.** Its value is “significantly reduced luciferase reporter activity”.

**Q.** What about the “selectivity index (SI)” value [1] of the same compound?
**A.** The value was 22.83.

**Q.** And the IC50 [1, 6]?
**A.** The IC50 was 3.01 µM.

**Q.** How did the “luciferase reporter activity (viral infection)” value [1] turn out when `CNC1(c2ccccc2Cl)CCCCC1=O` (centres unmarked) [Ketamine] was run?
**A.** The value was “neither ketamine nor the metabolites were effective”.

**Q.** With `Fc1ccc([C@@H]2CCNC[C@H]2COc2ccc3c(c2)OCO3)cc1` [Paroxetine] as the compound, how does the “luciferase reporter activity (viral infection)” value [1] read?
**A.** The value was “significantly reduced luciferase reporter activity”.

**Q.** And the “selectivity index (SI)” value [1]?
**A.** Its value is 1.76.

**Q.** And the “effectiveness against SARS-CoV-2 spike pseudotyped viruses compared with VSV-G pseudotyped viruses (luciferase activity)” value ([1]; 24 h)?
**A.** Its value is “more effective”.

**Q.** What about the IC50 [1, 6] of the same compound?
**A.** The IC50 was 12.6 µM.

**Q.** With `NNCCc1ccccc1` [Phenelzine] as the compound, how does the “luciferase reporter activity (viral infection)” value [1] read?
**A.** The value was “failed to prevent the viral entry”.

**Q.** Which results are given for `O=c1[nH]c2ccccc2n1C1CCN(CCCC(c2ccc(F)cc2)c2ccc(F)cc2)CC1` [Pimozide]?
**A.** luciferase reporter activity (viral infection) [1]: Decline of luciferase reporter activity; effectiveness against SARS-CoV-2 spike pseudotyped viruses compared with VSV-G pseudotyped viruses (luciferase activity) ([1]; 24 h): more effective; IC50 [1, 6]: 4.54 µM

**Q.** With `CCOc1ccccc1OC(c1ccccc1)C1CNCCO1` (centres unmarked) [Reboxetine] as the compound, how does the “luciferase reporter activity (viral infection)” value [1] read?
**A.** Its value is “significantly reduced luciferase reporter activity”.

**Q.** What about the “effectiveness against SARS-CoV-2 spike pseudotyped viruses compared with VSV-G pseudotyped viruses (luciferase activity)” value ([1]; 24 h) of the same compound?
**A.** Its value is “more effective”.

**Q.** What about the IC50 [1, 6] of the same compound?
**A.** The IC50 was 17.7 µM.

**Q.** `COc1ccc(C2CNC(=O)C2)cc1OC1CCCC1` (centres unmarked) [Rolipram] was tested. Which “luciferase reporter activity (viral infection)” value [1] did it give?
**A.** Its value is “failed to prevent the viral entry”.

**Q.** For `COc1ccc(C(CN(C)C)C2(O)CCCCC2)cc1` (centres unmarked) [Venlafaxine], which “luciferase reporter activity (viral infection)” value [1] is on record?
**A.** Its value is “significantly reduced luciferase reporter activity”.

**Q.** What about the IC50 [1, 6] of the same compound?
**A.** The IC50 was 36.4 µM.
